Here are results for five molecules from paper PMC3925085, “Subditine, a New Monoterpenoid Indole Alkaloid from Bark of Nauclea subdita (Korth.) Steud. Induces Apoptosis in Human Prostate Cancer Cells” (PLoS ONE, 2014).

SMILES strings stand for the structures.

As usually defined, the IC50 is the midpoint of a concentration-inhibition curve.

What all share (type): cell-based
Test [1] deals with RWPE-1 human normal prostate epithelial cells. The experiment in a line: MTT cell proliferation assay, RWPE-1. As to conditions: 24 hours, RWPE-1 normal cells, mean ± S.D. Here is the method:
(§1) Human prostate normal cell line (RWPE-1) and human prostate cancer cell lines; LNCaP and PC-3, were purchased from the American Type Culture Collection (ATCC, Manassas, Virginia, USA). LNCaP and PC-3 cells were grown in Roswell Park Memorial Institute medium (RPMI) supplemented with 10% heat-inactivated fetal bovine serum (FBS, Sigma-Aldrich, St. Louis, MO), 1% penicillin and streptomycin. RWPE-1 cells were maintained in Keratinocyte Serum Free Medium (K-SFM, ATCC) supplemented with bovine pituitary extract (BPE) and human recombinant epidermal growth factor (EGF). Mediums were supplemented with 10% heat-inactivated fetal calf serum (Sigma.), 100 U/ml penicillin and […] streptomycin (Flowlab, Sydney, Australia). All cells were maintained in a humidified atmosphere of 5% CO2 in air at 37°C incubator.
(§2) The anti-proliferative activity was evaluated by performing MTT assays as previously described with minor modifications. Briefly, cells were seeded 24 hours prior to treatment in a 96-well plate at 5×10^4 cells/well in order to obtain 70% to 80% confluent cultures. The compounds were dissolved in DMSO (Sigma Chemical Co., St. Louis, Missouri, USA) followed by a 2×serial dilution for 10 points ranged from 0.825 µM to 100 µM. The 96-well plate was incubated for 24 hours at 37°C in a humidified atmosphere with 5% CO2. At the end of incubation, 50 µl of MTT solution (2 mg/ml; Sigma) was added to each well. The plate was then incubated for 4 hours. All medium was removed and the purple formazan crystal formed at the bottom of the wells was dissolved with 200 µl DMSO for 20 minutes. The absorbance at 570 nm was read on a spectrophotometric plate reader (Hidex). The proportion of surviving cells was calculated as: […]
(§3) Dose-response curves were constructed to obtain the IC50 values. Experimental data were derived from 3 independent experiments. The selectivity index was obtained by mean IC50 RWPE-1/mean IC50 of LNCaP or PC-3.
For orientation: Tetrazolium dyes change colour on reduction, which living cells bring about.

The test system of test [2] is PC-3 human prostate cancer cells. The experiment in a line: MTT cell proliferation assay, PC-3. To be noted: for IC50: Homo sapiens, MTT, 24 hours, PC-3, mean ± S.D. The procedure: as §1, §2, §3
Test [3] has as its system LNCaP human prostate cancer cells. The experiment in a line: MTT cell proliferation assay, LNCaP. To be noted: for IC50: Homo sapiens, MTT, 24 hours, LNCaP, mean ± S.D. Here is the method:
as §1, §2, §3

With `Cc1cc2cc3n(c(=O)c2cn1)CCc1c-3[nH]c2ccccc12` [Angustidine, angustidine], the IC50 worked out at 36.07 ± 0.05 µM in test [1], 84.9 ± 1.48 µM in test [2] and 140.27 ± 0.1 µM in test [3].

In the case of `C=Cc1cncc2c(=O)n3c(cc12)-c1[nH]c2ccccc2c1CC3` [Angustine, angustine], the IC50 in test [1] is 98.39 ± 0.1 µM; in test [2] it was 122 ± 3.73 µM; in test [3], 149.16 ± 0.09 µM.

As for `CC(O)c1cncc2c(=O)n3c(cc12)-c1[nH]c2ccccc2c1CC3` (centres unmarked) [Angustoline, 1-(1-Hydroxyethyl)-7,8-dihydroindolo[2,3-a]pyridine[3,4-g]quinolizin-5(13H)-one], the IC50 in test [1] worked out at 65.94 ± 0.04 µM; in test [2] it was 67.3 ± 0.87 µM; in test [3], 58.09 ± 0.05 µM.

With `O=c1c2cnccc2cc2n1CCc1c-2[nH]c2ccccc12` [Nauclefine, nauclefine], the results for the IC50 in test [1], in test [2] and in test [3] were 72.85 ± 0.06 µM, 92.1 ± 1.28 µM and 86.35 ± 0.09 µM, respectively.

In the case of `CC(=O)O[C@H]1C(=O)[C@@]2(C)[C@H]([C@H](OC(=O)c3ccccc3)[C@]3(O)C[C@H](OC(=O)[C@H](O)[C@@H](NC(=O)c4ccccc4)c4ccccc4)C(C)=C1C3(C)C)[C@]1(OC(C)=O)CO[C@@H]1C[C@@H]2O` [Paclitaxel, paclitaxel, reference compound], the IC50 was 1.58 ± 0.06 µM in test [1], 1.33 ± 0.02 µM in test [2] and 1.27 ± 0.04 µM in test [3]. Moreover, the “selectivity index (SI) PC-3” value in test [2] (mean IC50 RWPE-1/mean IC50 of PC-3) is reported as 1.19. Besides, the “selectivity index (SI) LNCaP” value in test [3] (mean IC50 RWPE-1/mean IC50 of LNCaP) came out at 1.24.
